Experimental data: ChEMBL document CHEMBL1148257, “The significant effect of the carbohydrate structures on the DNA photocleavage of the quinoxaline-carbohydrate hybrids” (Bioorg Med Chem Lett, 2004)
pIC50: −log10 of the molar value.

Legend:
[1] = test system: Nucleic Acid; assay: Concentrations of compound at which 50% Form I DNA was converted into Form II DNA of Phi X 174; type: functional
[2] = test system: HeLa; assay: Cytotoxicity of compound against HeLa S3 cells without photoirradiation; type: functional, cell-based; conditions: Homo sapiens, light or radiation study
[3] = test system: HeLa; assay: Cytotoxicity of compound against HeLa S3 cells exposed to compound for 72 hr with 1 hr photoirradiation; conditions: Homo sapiens, light or radiation study

SMILES	CC50 [1] [µM]	pIC50 [2]	pIC50 [3]
CC1O[C@H](OC2C(O)C[C@@H](OCCOC(=O)c3cnc4ccccc4n3)OC2C)CC(N)C1O (some centres undefined)	160		
CC1O[C@H](OC2C(O)C[C@H](OCCOC(=O)c3cnc4ccccc4n3)OC2C)CC(N)C1O (some centres undefined)	43	< 4.00	5.22
